{
  "source": "ChEMBL document CHEMBL4673321",
  "about": "“15β-Senecioyl-oxy-ent-kaur-16-en-19-oic Acid, a Diterpene Isolated from Baccharis lateralis, as Promising Oral Compound for the Treatment of Schistosomiasis” (J Nat Prod, 2020)",
  "key": {"[1]": {"assay": "Selectivity index, ratio of CC50 for cytotoxicity against human SH-SY5Y cells to LC50 for antischistosomal activity against Schistosoma mansoni BH", "assay_type": "toxicity, cell-based", "conditions": "read-out: Selectivity Index"}, "Schistosoma mansoni [2]": {"tested_on": "Schistosoma mansoni", "assay": "Antischistosomal activity against Schistosoma mansoni BH assessed as reduction in parasitic viability at 25 uM after 24 hrs inverted light microscopic method", "assay_type": "functional, organism-based"}, "Schistosoma mansoni [3]": {"tested_on": "Schistosoma mansoni", "assay": "Antischistosomal activity against Schistosoma mansoni BH cercariae infected in mouse assessed as reduction in worm burden at 400 mg/kg, po administered as single dose starting on day 49 post-infection and measured after 14 days post treatment relative to control", "assay_type": "functional", "parameters": "scale not given: the % may be the effect or the level left", "conditions": "time 14 day"}, "Schistosoma mansoni [4]": {"tested_on": "Schistosoma mansoni", "assay": "Antischistosomal activity against Schistosoma mansoni BH cercariae infected in mouse assessed as reduction in spleen weight at 400 mg/kg, po administered as dose starting on day 49 post-infection and measured after 14 days post treatment relative to control", "assay_type": "functional", "parameters": "scale not given: the % may be the effect or the level left", "conditions": "time 14 day"}, "[5]": {"assay": "Cytotoxicity against human SH-SY5Y cells assessed as reduction in cell viability after 48 hrs by MTT assay", "assay_type": "cell-based"}, "Schistosoma mansoni [6]": {"tested_on": "Schistosoma mansoni", "assay": "Antischistosomal activity against female Schistosoma mansoni BH assessed as dilation of ovaries at 25 uM after 72 hrs microscopic method", "assay_type": "functional, organism-based"}, "Schistosoma mansoni [7]": {"tested_on": "Schistosoma mansoni", "assay": "Antischistosomal activity against Schistosoma mansoni BH cercariae infected in mouse assessed as reduction in liver weight at 400 mg/kg, po administered as dose starting on day 49 post-infection and measured after 14 days post treatment relative to control", "assay_type": "functional", "parameters": "scale not given: the % may be the effect or the level left", "conditions": "time 14 day"}, "Schistosoma mansoni [8]": {"tested_on": "Schistosoma mansoni", "assay": "Antischistosomal activity against male Schistosoma mansoni BH assessed as dilation of testes at 25 uM after 72 hrs microscopic method", "assay_type": "functional, organism-based"}, "Schistosoma mansoni [9]": {"tested_on": "Schistosoma mansoni", "assay": "Antischistosomal activity against Schistosoma mansoni BH cercariae infected in mouse assessed as reduction in egg burden in fecal at 400 mg/kg, po administered as dose starting on day 49 post-infection and measured after 14 days post treatment relative to control", "assay_type": "functional", "parameters": "scale not given: the % may be the effect or the level left", "conditions": "time 14 day"}, "[10]": {"assay": "Cytotoxicity against human HaCaT cells assessed as reduction in cell viability after 48 hrs by MTT assay", "assay_type": "cell-based"}, "Schistosoma mansoni [11]": {"tested_on": "Schistosoma mansoni", "assay": "Antischistosomal activity against Schistosoma mansoni BH assessed as reduction in parasitic viability after 72 hrs by inverted microscopic method", "assay_type": "functional"}, "Schistosoma mansoni [12]": {"tested_on": "Schistosoma mansoni", "assay": "Antischistosomal activity against Schistosoma mansoni BH cercariae infected in mouse assessed as reduction in egg burden in wall of intestine at 400 mg/kg, po administered as dose starting on day 49 post-infection and measured after 14 days post treatment relative to control", "assay_type": "functional", "parameters": "scale not given: the % may be the effect or the level left", "conditions": "time 14 day"}, "[13]": {"assay": "Toxicity in mouse infected with Schistosoma mansoni BH cercariae at 400 mg/kg, po after 14 days administered as dose starting on day 49 post-infection and measured after 14 days", "assay_type": "organism-based", "conditions": "in vivo, 336 h, time 14 day"}, "[14]": {"assay": "Selectivity index, ratio of CC50 for cytotoxicity against human HaCaT cells to LC50 for antischistosomal activity against Schistosoma mansoni BH", "assay_type": "toxicity, cell-based", "conditions": "read-out: Selectivity Index"}, "Schistosoma mansoni [15]": {"tested_on": "Schistosoma mansoni", "assay": "Antischistosomal activity against Schistosoma mansoni BH assessed as reduction in oviposition at 6.25 to 25 uM after 72 hrs light microscopic method", "assay_type": "functional, organism-based", "conditions": "dose 6.25-25 µM"}, "Schistosoma mansoni [16]": {"tested_on": "Schistosoma mansoni", "assay": "Antischistosomal activity against Schistosoma mansoni BH assessed as reduction in oviposition at 25 uM after 72 hrs light microscopic method", "assay_type": "functional, organism-based"}},
  "note": "Active and inactive are the calls of the source. The rule behind the calls is not given here.",
  "data": [
    {"smiles": "C=C1[C@@H]2CC[C@H]3[C@]4(C)CCC[C@@](C)(C(=O)O)[C@H]4CC[C@]3(C2)[C@H]1OC(=O)C=C(C)C", "values": [
      {"measurement": "selectivity ratio", "setting": "[1]", "value": 9.1},
      {"measurement": "Activity", "setting": "Schistosoma mansoni [2]", "value": "Active"},
      {"measurement": "Activity", "setting": "Schistosoma mansoni [3]", "value": 61.9, "unit": "%"},
      {"measurement": "Activity", "setting": "Schistosoma mansoni [4]", "value": 29.8, "unit": "%"},
      {"measurement": "CC50 at 48 h", "setting": "[5]", "value": 106, "unit": "µM"},
      {"measurement": "Activity", "setting": "Schistosoma mansoni [6]", "value": "Active"},
      {"measurement": "Activity", "setting": "Schistosoma mansoni [7]", "value": 23.5, "unit": "%"},
      {"measurement": "Activity", "setting": "Schistosoma mansoni [8]", "value": "Active"},
      {"measurement": "Activity", "setting": "Schistosoma mansoni [9]", "value": 71.6, "unit": "%"},
      {"measurement": "CC50 at 48 h", "setting": "[10]", "value": 147, "unit": "µM"},
      {"measurement": "LC50", "setting": "Schistosoma mansoni [11]", "value": 11.6, "unit": "µM"},
      {"measurement": "Activity", "setting": "Schistosoma mansoni [12]", "value": 69.2, "unit": "%"},
      {"measurement": "Activity", "setting": "[13]", "value": "Non-Toxic"},
      {"measurement": "selectivity ratio", "setting": "[14]", "value": 12.7},
      {"measurement": "Activity", "setting": "Schistosoma mansoni [15]", "value": "Active"}
    ]},
    {"smiles": "C=C1C[C@@]23CC[C@H]4[C@@](C)(CCC[C@@]4(C)C(=O)O)[C@@H]2CC[C@@H]1C3", "note": "[KAURENOIC ACID]", "values": [
      {"measurement": "selectivity ratio", "setting": "[1]", "value": 1.7},
      {"measurement": "Activity", "setting": "Schistosoma mansoni [2]", "value": "Active"},
      {"measurement": "CC50 at 48 h", "setting": "[5]", "value": 45.4, "unit": "µM"},
      {"measurement": "Activity", "setting": "Schistosoma mansoni [6]", "value": "inactive"},
      {"measurement": "Activity", "setting": "Schistosoma mansoni [8]", "value": "inactive"},
      {"measurement": "Activity", "setting": "Schistosoma mansoni [16]", "value": "Active"},
      {"measurement": "CC50 at 48 h", "setting": "[10]", "value": 109, "unit": "µM"},
      {"measurement": "LC50", "setting": "Schistosoma mansoni [11]", "value": 26.1, "unit": "µM"},
      {"measurement": "selectivity ratio", "setting": "[14]", "value": 4.2}
    ]},
    {"smiles": "O=C(C1CCCCC1)N1CC(=O)N2CCc3ccccc3C2C1", "note": "(stereo not given) [PRAZIQUANTEL]", "values": [
      {"measurement": "selectivity ratio", "setting": "[1]", "value": "> 180"},
      {"measurement": "Activity", "setting": "Schistosoma mansoni [3]", "value": 91.1, "unit": "%"},
      {"measurement": "CC50 at 48 h", "setting": "[5]", "value": "> 200", "unit": "µM"},
      {"measurement": "CC50 at 48 h", "setting": "[10]", "value": "> 200", "unit": "µM"},
      {"measurement": "LC50", "setting": "Schistosoma mansoni [11]", "value": 1.1, "unit": "µM"},
      {"measurement": "selectivity ratio", "setting": "[14]", "value": "> 180"}
    ]}
  ]
}
